In the supplement of paper PMC10307832:

Key:
Assay in all cases: relative viability (nuclei count vs DMSO), 5 days (fraction); higher = more cells survive
Lapatinib + Crizotinib = compound: CS(=O)(=O)CCNCc1ccc(-c2ccc3ncnc(Nc4ccc(OCc5cccc(F)c5)c(Cl)c4)c3c2)o1 [Lapatinib] + C[C@@H](Oc1cc(-c2cnn(C3CCNCC3)c2)cnc1N)c1c(Cl)ccc(F)c1Cl [Crizotinib] (partner 1 µM)
How it was run: (§1)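 Lung cancer cell lines in 1536-well plates got either a single drug or a fixed anchor-drug dose together with five library-drug doses (not always all listed) in √10 steps, by pin tool, on the day after seeding. Nuclei were counted after 5 days, and relative viability is the treated-to-vehicle ratio of nuclei counts. Values are medians of duplicate plates.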

Wnt-C59 + Pictilisib = compound: CC1=NC=CC(=C1)C2=CC=C(C=C2)CC(=O)NC3=CC=C(C=C3)C4=CN=CC=C4 [Wnt-C59] + CS(=O)(=O)N1CCN(Cc2cc3nc(-c4cccc5[nH]ncc45)nc(N4CCOCC4)c3s2)CC1 [Pictilisib] (partner 1 µM)
How it was run: as §1

Lapatinib + Navitoclax = compound: CS(=O)(=O)CCNCc1ccc(-c2ccc3ncnc(Nc4ccc(OCc5cccc(F)c5)c(Cl)c4)c3c2)o1 [Lapatinib] + CC1(C)CCC(c2ccc(Cl)cc2)=C(CN2CCN(c3ccc(C(=O)NS(=O)(=O)c4ccc(N[C@H](CCN5CCOCC5)CSc5ccccc5)c(S(=O)(=O)C(F)(F)F)c4)cc3)CC2)C1 [Navitoclax] (partner 0.5 µM)
How it was run: as §1

Wnt-C59 + OSI-027 = compound: CC1=NC=CC(=C1)C2=CC=C(C=C2)CC(=O)NC3=CC=C(C=C3)C4=CN=CC=C4 [Wnt-C59] + COc1cccc2cc(-c3nc([C@H]4CC[C@H](C(=O)O)CC4)n4ncnc(N)c34)[nH]c12 [OSI-027] (partner 0.5 µM)
How it was run: as §1

UMC-11
relative viability (Lapatinib + Crizotinib; first compound 0.02 µM): 0.541 | relative viability (Lapatinib + Crizotinib; first compound 0.06325 µM): 0.508 | relative viability (Lapatinib + Crizotinib; first compound 0.2 µM): 0.672 | relative viability (Lapatinib + Crizotinib; first compound 0.6325 µM): 0.578 | relative viability (Lapatinib + Crizotinib; first compound 2 µM): 0.659 | relative viability (Wnt-C59 + Pictilisib; first compound 0.001 µM): 0.81 | relative viability (Wnt-C59 + Pictilisib; first compound 0.01 µM): 0.843 | relative viability (Wnt-C59 + Pictilisib; first compound 0.03162 µM): 0.844 | relative viability (Wnt-C59 + Pictilisib; first compound 0.1 µM): 0.756 | relative viability (Lapatinib + Navitoclax; first compound 0.02 µM): 0.352 | relative viability (Lapatinib + Navitoclax; first compound 0.06325 µM): 0.278 | relative viability (Lapatinib + Navitoclax; first compound 0.2 µM): 0.311 | relative viability (Lapatinib + Navitoclax; first compound 0.6325 µM): 0.318 | relative viability (Lapatinib + Navitoclax; first compound 2 µM): 0.314 | relative viability (Wnt-C59 + OSI-027; first compound 0.001 µM): 0.464 | relative viability (Wnt-C59 + OSI-027; first compound 0.01 µM): 0.495 | relative viability (Wnt-C59 + OSI-027; first compound 0.03162 µM): 0.477 | relative viability (Wnt-C59 + OSI-027; first compound 0.1 µM): 0.462
